Molecules are shown by their SMILES. Structures can show the parent of a compound that is named as a salt. Some results are limits rather than exact numbers.

For one test, the target named is T1, hD2 recombinant receptor (human dopamine receptor type 2, long variant, CHO-Gα16-hD2L cells) (Homo sapiens (Human), UniProt P14416). The test can be described thus: cell-based. The note with it: D2 fpKi, functional pKi; antagonism of dopamine EC80 calcium response (FLIPR).
In the case of `Cn1c(SCCCN2CC[C@]3(C[C@@H]3c3ccc(C(F)(F)F)cc3)C2)nnc1N1CCOCC1` (single isomer, unassigned) [Example 118, hydrochloride], the inhibition constant Ki (as a rule, the dissociation constant of the complex between target and ligand, obtained from inhibition or displacement) was 41.7 nM.
As to `Cn1c(SCCCN2CC[C@]3(CC3c3ccc(C(F)(F)F)cc3F)C2)nnc1-c1ccncn1` (stereo partly drawn) [Example 213, (1S,3S/1R,3R)-1-[2-fluoro-4-(trifluoromethyl)phenyl]-5-(3-{[4-methyl-5-(pyrimidin-4-yl)-4H-1,2,4-triazol-3-yl]sulfanyl}propyl)-5-azaspiro[2.4]heptane], the Ki was 81.3 nM.
In the case of `Cn1c(SCCCN2CC[C@]3(CC3c3ccc(C(F)(F)F)cc3F)C2)nnc1-c1cnccn1` (stereo partly drawn) [Example 221, (1S,3S/1R,3R)-1-[2-fluoro-4-(trifluoromethyl)phenyl]-5-(3-{[4-methyl-5-(pyrazin-2-yl)-4H-1,2,4-triazol-3-yl]sulfanyl}propyl)-5-azaspiro[2.4]heptane], the inhibitory constant (Ki) is 87.1 nM.
Still for that read-out and setting: next, `Cn1c(SCCCN2CC[C@]3(C[C@@H]3c3ccc(C(F)(F)F)cc3)C2)nnc1-c1ccno1` [Example 229, (1R,3S/1S,3R)-5-(3-{[4-methyl-5-(1,2-oxazol-5-yl)-4H-1,2,4-triazol-3-yl]sulfanyl}propyl)-1-[4-(trifluoromethyl)phenyl]-5-azaspiro[2.4]heptane]: 2340 nM; `Cn1c(CCCCN2CC[C@]3(CC3c3ccc(C(F)(F)F)cc3)C2)nnc1C1CCOCC1` (stereo partly drawn) [Example 296, (1S,3S/1R,3R)-5-{4-[4-methyl-5-(oxan-4-yl)-4H-1,2,4-triazol-3-yl]butyl}-1-[4-(trifluoromethyl)phenyl]-5-azaspiro[2.4]heptane]: over 10000 nM.
For the compound `Cc1ncoc1-c1nnc(CCCCN2CC[C@]3(CC3c3ccc(C(F)(F)F)cc3)C2)n1C` (stereo partly drawn) [Example 301, (1R,3S/1S,3R)-5-{4-[4-methyl-5-(4-methyl-1,3-oxazol-5-yl)-4H-1,2,4-triazol-3-yl]butyl}-1-[4-(trifluoromethyl)phenyl]-5-azaspiro[2.4]heptane hydrochloride], the Ki was 1450 nM.
The same measure, in the same setting: under `Cn1c(OCCCN2CC[C@]3(C[C@H]3c3ccc(C(F)(F)F)cc3)C2)nnc1C1CCOCC1` [Example 303, (1S,3S/1R,3R)-5-(3-{[4-methyl-5-(oxan-4-yl)-4H-1,2,4-triazol-3-yl]oxy}-propyl)-1-[4-(trifluoromethyl)phenyl]-5-azaspiro[2.4]heptane] stands over 10000 nM; under `Cc1ncoc1-c1nnc(SCCCN2CCC[C@]3(C[C@@H]3c3ccc(C(F)(F)F)cc3)C2)n1C` [Example 313, (1S,3S/1R,3R)-5-(3-{[4-methyl-5-(4-methyl-1,3-oxazol-5-yl)-4H-1,2,4-triazol-3-yl]sulfanyl}propyl)-1-[4-(trifluoromethyl)phenyl]-5-azaspiro[2.5]octane], over 10000 nM.

The target in the next test is T1, hD2 recombinant receptor (human dopamine receptor type 2, long variant, CHO-Gα16-hD2L cells).
Test: not given
The following applies: functional pKi; antagonism of dopamine EC80 calcium response (FLIPR).
On to `Cn1c(OCCCN2CC[C@]3(C[C@H]3c3ccc(C(F)(F)F)cc3)C2)nnc1C1CCOCC1` (single isomer, unassigned) [Example 304, (1S,3S or 1R,3R)-5-(3-{[4-methyl-5-(oxan-4-yl)-4H-1,2,4-triazol-3-yl]oxy}propyl)-1-[4-(trifluoromethyl)phenyl]-5-azaspiro[2.4]heptane], for which the “D2 fpKi” value is under 5.
Still for that read-out and setting: under `Cn1c(OCCCN2CC[C@@]3(C[C@@H]3c3ccc(C(F)(F)F)cc3)C2)nnc1C1CCOCC1` (single isomer, unassigned) [Example 305, (1R,3R or 1S,3S)-5-(3-{[4-methyl-5-(oxan-4-yl)-4H-1,2,4-triazol-3-yl]oxy}-propyl)-1-[4-(trifluoromethyl)phenyl]-5-azaspiro[2.4]heptane] stands under 5; under `Cc1ncoc1-c1nnc(SCCCN2CCC[C@]3(C[C@H]3c3ccc(C(F)(F)F)cc3)C2)n1C` (single isomer, unassigned) [Example 312, (1S,3R or 1R,3S)-5-(3-{[4-methyl-5-(4-methyl-1,3-oxazol-5-yl)-4H-1,2,4-triazol-3-yl]sulfanyl}propyl)-1-[4-(trifluoromethyl)phenyl]-5-azaspiro[2.5]octane], 8.26; under `Cc1ncoc1-c1nnc(SCCCN2CCC[C@@]3(C[C@H]3c3ccc(C(F)(F)F)cc3)C2)n1C` (single isomer, unassigned) [Example 314, (1S,3S or 1R,3R)-5-(3-{[4-methyl-5-(4-methyl-1,3-oxazol-5-yl)-4H-1,2,4-triazol-3-yl]sulfanyl}propyl)-1-[4-(trifluoromethyl)phenyl]-5-azaspiro[2.5]octane], under 5.
The same measure, in the same setting: under `Cc1ncoc1-c1nnc(SCCCN2CC[C@]3(CC[C@H]3c3ccccc3)C2)n1C` (single isomer, unassigned) [Example 318, (1R,4S or 1S,4R or 1S,4S or 1R,4R)-6-(3-{[4-methyl-5-(4-methyl-1,3-oxazol-5-yl)-4H-1,2,4-triazol-3-yl]sulfanyl}propyl)-1-phenyl-6-azaspiro[3.4]octane] stands under 5.

A further test addresses T2, hD2 recombinant receptor (human dopamine receptor type 2, long variant, CHO-Gα16-hD2L membranes) (Homo sapiens (Human), UniProt P14416). Nature of the test: biochemical.
Conditions: not given
Consider `Cn1c(SCCCN2CC[C@]3(C[C@@H]3c3ccc(C(F)(F)F)cc3)C2)nnc1N1CCOCC1` (single isomer, unassigned) [Example 118, hydrochloride], for which the Ki is 251 nM.
Turning to `Cc1cccnc1-c1nnc(SCCCN2CC[C@]3(C[C@@H]3c3ccc(C(F)(F)F)cc3)C2)n1C` (single isomer, unassigned) [Example 170, dihydrochloride], the Ki is 1410 nM.
Turning to `Cn1c(SCCCN2CC[C@]3(C[C@@H]3c3ccc(C(F)(F)F)cc3)C2)nnc1-c1ccnc(C#N)c1` (single isomer, unassigned) [Example 178], the Ki was 794 nM.
On the same count and under the same terms, next, `Cn1c(SCCCN2CC[C@]3(C[C@@H]3c3ccc(C(F)(F)F)cc3F)C2)nnc1-c1ccc(C(N)=O)nc1` (single isomer, unassigned) [Example 185]: 1230 nM; `Cn1c(SCCCN2CC[C@@]3(C[C@H]3c3ccc(C(F)(F)F)cc3F)C2)nnc1-c1ccc(C(N)=O)nc1` (single isomer, unassigned) [Example 186]: 4900 nM.
For `Cn1c(SCCCN2CC[C@]3(C[C@@H]3c3ccc(C(F)(F)F)cc3)C2)nnc1-c1ccc(C(N)=O)cn1` (single isomer, unassigned) [Example 189, dihydrochloride], the inhibition constant Ki is 437 nM.
Regarding `Cn1c(SCCCN2CC[C@]3(C[C@@H]3c3ccc(C(F)(F)F)cc3F)C2)nnc1-c1ccc(C(N)=O)cn1` (single isomer, unassigned) [Example 190], the Ki was 275 nM.
`Cn1c(SCCCN2CC[C@]3(C[C@@H]3c3ccc(C(F)(F)F)cc3)C2)nnc1-c1ccnc(C(N)=O)c1` (single isomer, unassigned) [Example 191]: the Ki is 513 nM.
`Cn1c(SCCCN2CC[C@]3(C[C@@H]3c3ccc(C(F)(F)F)cc3)C2)nnc1-c1cncc(C(N)=O)c1` (single isomer, unassigned) [Example 192]: the Ki was 437 nM.
As to `Cn1c(SCCCN2CC[C@]3(C[C@@H]3c3ccc(C(F)(F)F)cc3)C2)nnc1-c1cccc(C(N)=O)n1` (single isomer, unassigned) [Example 193], the Ki is 437 nM.
Still for that read-out and setting: under `Cc1nccnc1-c1nnc(SCCCN2CC[C@]3(C[C@@H]3c3ccc(C(F)(F)F)cc3)C2)n1C` (single isomer, unassigned) [Example 227, hydrochloride] stands 575 nM; under `Cn1c(SCCCN2CC[C@]3(C[C@@H]3c3ccc(C(F)(F)F)cc3)C2)nnc1-c1cnc(-c2cccnc2)o1` (single isomer, unassigned) [Example 263], 589 nM; under `Cn1c(SCCCN2CC[C@]3(C[C@@H]3c3ccc(C(F)(F)F)cc3)C2)nnc1-c1ccc(Oc2ccccc2)nc1` (single isomer, unassigned) [Example 265], 589 nM.
Consider `Cn1c(SCCCN2CC[C@]3(C[C@@H]3c3ccc(C(F)(F)F)cc3)C2)nnc1-c1ccn2cnnc2c1` (single isomer, unassigned) [Example 269], for which the inhibitory constant (Ki) is 1000 nM.
The same measure, in the same setting: next, `Cn1c(SCCCN2CC[C@]3(C[C@@H]3c3ccc(C(F)(F)F)cc3)C2)nnc1-c1ccc2[nH]cnc2n1` (single isomer, unassigned) [Example 272]: 95.5 nM; `Cn1c(SCCCN2CC[C@]3(C[C@@H]3c3ccc(C(F)(F)F)cc3)C2)nnc1-c1ccc(-c2nnn[nH]2)cc1` (single isomer, unassigned) [Example 273]: 3160 nM; `Cc1nc(-c2ccc(-c3nnc(SCCCN4CC[C@]5(C[C@@H]5c5ccc(C(F)(F)F)cc5)C4)n3C)cc2)no1` (single isomer, unassigned) [Example 275]: 479 nM.
Turning to `Cn1c(SCCCN2CC[C@]3(C[C@@H]3c3ccc(C(F)(F)F)cc3)C2)nnc1-c1ccc(-n2cnnc2)cc1` (single isomer, unassigned) [Example 276], the Ki was 166 nM.
Still for that read-out and setting: next, `Cn1c(SCCCN2CC[C@]3(C[C@@H]3c3ccc(C(F)(F)F)cc3)C2)nnc1-c1ccc(CC#N)cc1` (single isomer, unassigned) [Example 286]: 468 nM.
Still for that read-out and setting: under `Cc1ncoc1-c1nnc(CCCCN2CC[C@]3(C[C@@H]3c3ccc(C(F)(F)F)cc3)C2)n1C` (single isomer, unassigned) [Example 302, hydrochloride] stands 1150 nM.

The next test concerns the target T2, hD2 recombinant receptor (human dopamine receptor type 2, long variant, CHO-Gα16-hD2L membranes).
Test: not given
The note with it: displacement of 0.08 nM [3H]-Spiperone.
With `Cn1c(SCCCN2CC[C@]3(CC3c3ccc(C(F)(F)F)cc3F)C2)nnc1-c1cnccn1` (stereo partly drawn) [Example 221, (1S,3S/1R,3R)-1-[2-fluoro-4-(trifluoromethyl)phenyl]-5-(3-{[4-methyl-5-(pyrazin-2-yl)-4H-1,2,4-triazol-3-yl]sulfanyl}propyl)-5-azaspiro[2.4]heptane], the “D2 pKi” value was 6.37.

For the origin of these results see patent US10239870B2, “Dopamine D3 receptor antagonists” (priority 2014, dated 2019).
